# Assay results reported in the NIST ThermoML archive (doi:10.1016/j.fluid.2015.09.030).
# ± gives the expanded uncertainty stated by the source.
# Conditions: Liquid, Ebulliometric method (Recirculating still)
compound,measurement,setting,value
CCO [ethanol],vapor or sublimation pressure,351.45 K,101.33 ± 0.46 kPa
c1ccccc1 [benzene],vapor or sublimation pressure,353.15 K,101.33 ± 0.46 kPa
"Cc1ccc(C)s1 [2,5-dimethylthiophene]",vapor or sublimation pressure,409.96 K,101.33 ± 0.46 kPa
"Cc1cc(C)cc(C)c1 [1,3,5-trimethylbenzene]",vapor or sublimation pressure,437.83 K,101.33 ± 0.46 kPa
CCCCCCCCCC [decane],vapor or sublimation pressure,447.46 K,101.33 ± 0.46 kPa
CCc1cccs1 [2-ethylthiophene],vapor or sublimation pressure,407.14 K,101.33 ± 0.46 kPa
